Experimental data as given in patent US8574551B2, “Compositions useful for reducing nephrotoxicity and methods of use thereof” (Verrow Pharmaceuticals, Inc., priority 2005, dated 2013).

Experiments:
kidney [1] = test: Renal pathology in EAE mice after MTX or MTX+Captisol; format: in vivo, C57BL6 mice; conditions: MTX 40 mg/kg single intravenous bolus, no Captisol
Experimental: Injection volume were between 100-120 μl. […] Leukovorin, the active metabolite of folic acid, is typically given with methotrexate in anti-cancer chemotherapy to help protect normal cells. Mice were scored daily for disease severity and then sacrificed on day 10 of disease. Brain, kidney and spleen were formalin fixed. […] For light microscopic investigation, kidneys were fixed in 10% buffered formalin and processed routinely for paraffin embedding. Tissue sections of 5 micron meter were stained with hematoxylin and eosine and examined under Nikon coolpix light microscope. The severity of total kidney damage was evaluated by a semiquantitative measurement of damage as described. Each tissue section of the kidney was assessed for degeneration of glomerular structure, glomerular crowding and congestion, dilation of bowman space, degeneration of proximal and distal tubules, and dilation of renal tubules, vascular congestion, and inflammatory cell infiltration. For glomerular atrophy, glomeruli that contained more than 20 nuclei were scored “0”, and those containing less than 10 nuclei were scored “4.” Intermediate stages were 1, 2 and 3. Other criterion was scored on a 0-3 scale: 0=none; 1=mild; 2=moderate; 3=severe. […]

kidney [2] = test: Methotrexate induced nephrotoxicity model in mice, HPβCD; format: in vivo, C57BL/6 mice; conditions: normal mice; MTX 80 mg/kg single IV injection alone; 24 hrs
Experimental: To determine the protective effect of other cyclodextrin molecules, 2-hydroxypropyl β-cyclodextrin (HPβCD) was evaluated. Female C57BL/6 mice were injected intravenously with a single dose of methotrexate 80 mg/kg, IV, or methotrexate+HPβCD, IV, at methotrexate to HPβCD molar ratios of 1:1 and 1:0.5. The animals were sacrificed after 24 hrs. The development of glomerular and tubulointerstitial injury after methotrexate and protection by methotrexate+HPβCD was evaluated by means of assessment of renal histology by light microscopy. Leukovorin was given 4 hrs and after 18 hrs. Urine was not alkalinized.
Paraffin sections of […] were cut and stained with H&E and periodic acid Schiff (PAS). They were examined by light microscopy and scored in a blinded fashion. Five arbitratary fields at 40× magnification in each sections was assessed for the parameters, and scored according to the criteria, set forth in Example 7.

kidney [3] = test: Captisol-MTX time studies, kidney histopathology at 24 hrs, 48 hrs, 1 week; format: in vivo, mice
Experimental: For light microscopic investigation, kidneys were fixed in 10% buffered formalin and processed routinely for paraffin embedding. Tissue sections of 5 micron meter were stained with hematoxylin and eosine and examined under a Nikon coolpix light microscope, photography was done with a Nikon Coolpix camera. The severity of total kidney damage was evaluated by a semiquantitative measurement of damage as described below. Each tissue section of the kidney was assessed for degeneration of glomerular structure, glomerular crowding and congestion, dilation of bowman space, degeneration of proximal and distal tubules, and dilation of renal tubules, vascular congestion, and inflammatory cell infiltration. For glomerular atrophy, glomeruli that contained more than 20 nuclei were scored “0”, and those containing less than 10 nuclei were scored “4.” Intermediate stages were 1, 2 and 3. Other criterion was scored on a 0-3 scale: 0=none; 1=mild; 2=moderate; and 3=severe. The microscopic score of each tissue was calculated as the sum of the scores given to each criterion and at least 100 nephrons (glomeruli plus surrounding tubules) were analyzed per section. See, e.g., Bhat et al., PNAS (2003) 100(7); Sener et al., Cell Biol Toxicol (2006) 22:[…].

[4] = MTX-captisol solubility: rate of precipitation of MTX at pH 5.0 in presence and absence of captisol; format: physicochemical; conditions: for Amount of MTX in solution 1:25 dilution: diluted sample, pH 5.0, MTX added 0.91 mg/ml; for conc. of MTX (molarity of mtx): pH 5.0, Concentration of MTX added 0.002M
Experimental: Solubility studies were performed to determine whether Captisol could prevent the precipitation of MTX over a time period greater than transit time of MTX through the kidney (i.e., less than 2 minutes). Each solution was acidified with HCl, centrifuged and aliquots of the supernatant removed as a function of time, and the concentration of MTX in solution was measured spectrophometrically.

kidney [5] = test: Histopathological changes in the kidney after single bolus intravenous MTX with or without captisol at different molar ratios; format: in vivo; conditions: normal mice, 48 hours
Experimental: A study of histopathological changes in the kidney after single bolus intravenous MTX with or without concurrent captisol at different molar ratios was performed.
MTX solutions were prepared as follows. Solution A (24 mg/ml (53 mM)) was prepared from stock solution of 25 mg/ml (Methotrexate from Bedford laboratories) in sterile PBS (total volume 6 mL). Solution B was prepared by diluting 3 ml of Solution A to 1:1.33 in PBS to obtain a working dilution of 18 mg/mL (39.6 mM), pH 7.4. Solution C was prepared by diluting 2 mL of solution A 1:2 to obtain a working dilution of 12 mg/mL (26.4 mM), pH 7.2.
MTX+Captisol solutions were prepared as follows. Solution D was made by adding 57.32 mg Captisol to an aliquot of 500 micro liter of solution A (molar ratio 1:1, neutral pH). […]
MTX and Captisol were administered to 8 groups of mice (Groups I-VIII; see Table 3) via tail vein by a single injection in a volume of 100-120 μL. […] Clinical symptoms, body weights were recorded. […]
Semi quantitative estimates of total kidney damage in mice treated with MTX 80 mg/kg, 120 mg/kg, and a combination of MTX+Captisol at MTX to Captisol molar ratio of 1:1 and 1:0.5, are shown in FIG. 4. […] Hematoxylin and eosin sections of paraffin embedded kidney were analyzed microscopically for extent of renal damage. Data is expressed as mean±SEM. […]

## CN(Cc1cnc2nc(N)nc(N)c2n1)c1ccc(C(=O)N[C@@H](CCC(=O)O)C(=O)O)cc1 [MTX, N-[4-[[(2,4-diamino-6pteridinyl)methyl]methylamino]benzoyl]-L-glutamicacid]
Kidney [1]
  kidney sections, morphological changes: dilation of renal tubules and degeneration of proximal tubules
Kidney [2]
  renal histology: significant histopathological changes in the kidney
Kidney [3]; MTX 160 mg/kg alone, 24 hours post injection
  kidney histopathology (H&E): degeneration of glomerular structure and dilation of Bowman's space, degeneration of proximal and distal tubules and inflammatory cell infiltration
Kidney [3]; MTX 160 mg/kg i.v. alone, 48 hours post injection
  kidney histopathology (H&E): degeneration of glomerular structure, dilation of Bowman's space, dilation of proximal and distal tubules, degeneration of proximal and distal tubules and inflammatory cell infiltration
Kidney [3]; MTX 160 mg/kg single i.v. bolus alone, 1 week
  kidney histopathology (H&E): degeneration of proximal and distal tubules with occasional glomerular atrophy or crowding
Kidney [3]; normal mice, MTX 160 mg/kg single iv bolus, 24 and 48 hours
  kidney tissue histopathological changes (FIG. 5): extensive histopathological changes
[4]; 5 min after adding acid
  Amount of MTX in solution 1:25 dilution: 3.449 µg/mL
  conc. of MTX (molarity of mtx): 189.7 µM
[4]; 10 min after adding acid
  Amount of MTX in solution 1:25 dilution: 2.509 µg/mL
  conc. of MTX (molarity of mtx): 138 µM
[4]; 15 min after adding acid
  Amount of MTX in solution 1:25 dilution: 3.177 µg/mL
  conc. of MTX (molarity of mtx): 174.7 µM
[4]; 20 min after adding acid
  Amount of MTX in solution 1:25 dilution: 3.844 µg/mL
  conc. of MTX (molarity of mtx): 211.4 µM
[4]; 30 min after adding acid
  Amount of MTX in solution 1:25 dilution: 3.807 µg/mL
  conc. of MTX (molarity of mtx): 209.4 µM
[4]; 40 min after adding acid
  Amount of MTX in solution 1:25 dilution: 3.3 µg/mL
  conc. of MTX (molarity of mtx): 181.5 µM
[4]; 50 min after adding acid
  Amount of MTX in solution 1:25 dilution: 3.412 µg/mL
  conc. of MTX (molarity of mtx): 187.6 µM
[4]; 60 min after adding acid
  Amount of MTX in solution 1:25 dilution: 3.906 µg/mL
  conc. of MTX (molarity of mtx): 214.8 µM
Kidney [5]; MTX 80 mg/kg iv bolus alone
  kidney histopathology (H&E): dilation of tubules, degenerative changes in the tubules, hypercellularity in the glomerulus and atypical collection of interstitial cells and convulated tubules
Kidney [5]; MTX 120 mg/kg IV alone
  kidney histopathology (H&E): glomerular atrophy, degeneration of basement membrane on bowman capsule, degenerative changes in the tubules, hypercellularity in the glomerulus and infiltration of mononuclear cells
